{"source": "patent US11092602B2", "about": "“Methods and compositions relating to proteasome inhibitor resistance” (Whitehead Institute for Biomedical Research, priority 2015, dated 2021)", "key": {"IMR32 and Kelly cells": {"test_system": "IMR32 and Kelly cells", "experiment": "CellTiter-Glo viability of IMR32 and Kelly neuroblastoma cells", "format": "cell-based", "conditions": "0.001 um to 0.100 um; 72 hours", "protocol": "IMR32 and Kelly cells were each cultured in the presence of bortezomib at concentrations ranging from 0.001 um to 0.100 um. […] The fold viability relative to culture in the absence of bortezomib was determined for each cell line.\nThe fold viability relative to culture in the absence of the compound was determined for each cell line."}, "T47D cells": {"test_system": "T47D cells", "experiment": "Competition co-culture of shPSMD2-RFP and shControl-GFP T47D cells, FACS and microscopy", "format": "cell-based, human", "conditions": "48 hours", "protocol": "We created two cell lines—one line that expresses red fluorescent protein (turboRFP) and the doxycycline-inducible PSMD2-targeting shRNA and another line that expresses green fluorescent protein (GFP) and a doxycycline-inducible control shRNA (FIG. 6A). First, we induced shRNA expression with doxycycline for 48 hours. After recovery, we mixed shPSMD2-RFP and shControl-GFP cells at different ratios (either 1:1, 1:2, 1:5 or 1:10), adding the cells with reduced PSMD2 as the minority subpopulation. Twenty-four hours after plating, we treated these mixed populations of cells for 48 hours with increasing concentrations of bortezomib (5, 7.5 or 10 nM). We allowed the cells to recover in the absence of bortezomib and then we quantified the red and green cells by FACS analysis (FIG. 6A) and captured representative images by fluorescence microscopy (FIG. 6B).\nThe experiment described in Example 10 was repeated with minor differences using a panel of different proteasome inhibitors: MLN2238, MLN9708, and oprozomib T47D cells harboring a doxycycline inducible control shRNA (GFP) or a doxycycline-inducible PSMD2 shRNA (TurboRFP) were incubated with doxycycline for 3 days. Cells were collected, counted, and plated at a 1:10 ratio of TurboRFP-expressing PSMD2 shRNA cells/GFP expression control shRNA cells in the absence of Dox. Proteasome inhibitors were added at the specified concentrations and cells were maintained in culture. Cells were allowed to recover in the absence of the proteasome inhibitor and then analyzed by FACS (FIG. 8B, top) or visualized by microscopy (FIG. 8B, bottom). In the absence of proteasome inhibitors, the initial plating ratio of these cells (1:10) was maintained over the duration of the experiment (FIG. 8B). […] The effect was concentration-dependent in that higher concentrations elicited more substantial shifts.\ncells were trypsinized in 100 μL Accumax® solution and further diluted into 100 μl PBSx1. The number of cells with red or green fluorescent proteins was measured by MACSQuant® VYB according to manufactures protocol. Images of RFP and GFP were created by overlaying images using Fiji software."}, "[1]": {"test_system": "relapsed multiple myeloma", "experiment": "Phase 2 and 3 clinical trials of bortezomib in relapsed multiple myeloma, stratified by sigma score", "format": "in vivo, human", "from_the_text": "We analyzed gene expression data from 135 patients with relapsed multiple myeloma who participated in Phase II or III trials of bortezomib (˜2007; Mulligan, G., Mitsiades, et al. (2007) Gene expression profiling and correlation with outcome in clinical trials of the proteasome inhibitor bortezomib. Blood 109, 3177-3188) and determined the sigma score for each cancer. The sigma score for each cancer (prior to treatment) was computed by comparing the expression of each 19S subunit (except PSMC4, which was not included in the analysis for technical reasons) in each cancer with the average expression of that subunit in the total set of cancers (reference level) and determining the number of standard deviations by which each expression level differed from the reference level.\nMethods details: re-treatment gene expression data from relapsed multiple myeloma patients undergoing clinical trials with bortezomib were downloaded from GSE9782 (34). Gene expression data was RMA normalized and log transformed. Sigma scores were calculated from all probes. […] For each group, the time to relapse from bortezomib treatment was plotted as a Kaplan-Meier plot. P-value was calculated using Wilcoxon test."}, "β5-subunit": {"biological_target": "β5-subunit (Homo sapiens, UniProt P28074)", "conditions": "cited from earlier work"}, "20S proteasome": {"biological_target": "20S proteasome (Homo sapiens, UniProt P28074)", "experiment": "Native gel analysis of proteasomal complexes with Suc-LLVY-AMC substrate overlay", "format": "biochemical", "conditions": "12 nM bortezomib for 24 hours", "from_the_text": "We first separated 20S and 26S proteasomes on native gels and examined effects on the relative levels of 26S and 20S proteasome complexes. In cells with reduced levels of either PSMC5 or PSMD2, 26S proteasome complexes were reduced and 20S proteasome complexes were increased (FIGS. 2E and 2F). These changes persisted in the presence of bortezomib (FIGS. 2E and 2F). Next, we assayed their activity with a fluorescently labeled substrate.\nProteasomal samples were loaded on a nondenaturing 4% polyacrylamide gel using the protocol described previously (Tsvetkov et al., 2014). Gels were either overlaid with Suc-LLVY-AMC (50 μM) for assessment of proteasomal activity or transferred to nitrocellulose membranes where immunoblotting specific for proteasomal subunits was conducted. Proteasomal activity was assessed by measuring the hydrolysis of Suc-LLVY-AMC by substrate overlay assays in native polyacrylamide gels with 50 mM Tris-HCl, pH 7.8, 5 mM MgCl2, 1 mM DTT, 2 mM ATP, 50 μM Suc-LLVY-AMC peptide, and incubating the gels at 37° C. for 30-60 min. Activity was visualized by transilluminated by a UV light and photographed with BIORAD Chemidoc imaging system."}, "[2]": {"test_system": "stress-response transcripts", "experiment": "RNA-seq gene expression profiling of PSMD2 knockdown and control (shLacZ) cells", "format": "cell-based, human", "conditions": "control cells; 12 nM bortezomib for 24 hours", "protocol": "Sequence data confirmed that PSMD2 mRNA levels were reduced by ˜50% in both lines. We examined basal gene expression and the effects of bortezomib treatment on these cells, comparing them to cells carrying a control lacZ shRNA construct.\nRNA was extracted from triplicate samples and RNA libraries were prepared for sequencing by NEBNext Ultra RNA Library Prep Kit for Illumina (New England BioLabs, Ipswich, Mass.), including the removal of large and small RNA, synthesis of cDNA, and construction of cDNA libraries. Libraries were barcoded using NEBNext Multiplex Oligos for Illumina (NEB). Libraries were sequenced using Illumina HiSeq 2500, with paired-end 100 bp reads. Paired-end reads were aligned to UCSC human transcriptome 19 (hg19) using TopHat (Bowtie v2.0.9). Alignment quality and read distribute was assessed via SAMtools (v0.1.19) (Li et al., 2009). Transcript assembly was conducted using cufflinks (v2.2.1). […] RNA sequencing data have been deposited in the NCBI Sequence Read Archive under accession number: PRJNA281613.\nGenes differentially expressed upon PSMD2 knockdown in either the presence or absence of bortezomib treatment were determined as follows (FIG. 3E): For each gene in the matrix described above, the values were normalized to the average expression in the LacZ control cells. […]"}}}
{"smiles": "CC(C)C[C@H](NC(=O)[C@H](Cc1ccccc1)NC(=O)c1cnccn1)B(O)O", "note": "[bortezomib]", "values": [{"measurement": "resistance of IMR32 cells relative to Kelly cells", "setting": "IMR32 and Kelly cells", "result": "increased resistance"}, {"measurement": "shift of surviving cell populations towards shPSMD2-RFP cells", "setting": "T47D cells; 5 nM, ratios 1:1, 1:2, 1:5, 1:10", "result": "substantially shifted the populations of surviving cells"}, {"measurement": "shift of surviving cell populations towards shPSMD2-RFP cells", "setting": "T47D cells; 7.5 nM and 10 nM", "result": "even more substantial shifts"}, {"measurement": "time to progression", "setting": "[1]; 34 patients with reduced expression of at least one 19S subunit versus patients without, p-value=0.0086", "result": "shortened time to progression"}, {"measurement": "progression-free survival", "setting": "[1]; patients with 3-Sigma disease versus sigma score less than 3", "result": "Reduced Progression-Free Survival"}, {"measurement": "effectiveness over dexamethasone control", "setting": "[1]; patients with reduced expression of 19S proteasome subunit(s)", "result": "no significant effectiveness over the dexamethasone control"}, {"measurement": "potency of inhibition of the β5-subunit", "setting": "β5-subunit", "result": "low nanomolar"}, {"measurement": "20S proteasome activity", "setting": "20S proteasome; cells with reduced PSMC5 or PSMD2", "result": "maintained a significant level of 20S proteasome activity"}, {"measurement": "20S proteasome function", "setting": "20S proteasome; control cells", "result": "nearly complete inactivation of 20S proteasome function"}, {"measurement": "transcriptional response", "setting": "[2]", "result": "sharp increase in stress-response transcripts"}]}
